From US9844226B2 (AJINOMOTO CO., INC., priority 2009, dated 2017)
“And” between values parts separate entries of the source, which are not always exact repeats. Identical values can stand only once. “Also recorded” adds a separate entry of the source. Starred links: 1 amine or outer side, 2 acyl side, 3 side chain; linkers in the order of their positions; H or OH if unused. Non-standard residues stand in square brackets, D forms with d. No end group written: not given here. γGlu = O=C(O)[C@H](CCC(=O)[*:2])N[*:1]

Columns and labels:
Format in all cases: in vivo, human
panelists [1] = test: Quantitative sensory evaluation test of kokumi-imparting activity; settings: for Strength of Kokumi Impartment, Initial Taste / Strength of Kokumi Impartment, Middle/After Taste: scale -5~0~5, n=4; for Kokumi-imparting strength compared with γ-Glu-Val (in words): in vivo
Protocol: This quantitative sensory evaluation test was carried out as follows: The strength of the kokumi-imparting activity was measured for the cases where the test compound was mixed at concentrations of 0.001 to 0.5 g/dL with distilled water containing sodium glutamate (0.05 g/dL), inosine monophosphate (0.05 g/dL), and sodium chloride (0.5 g/dL). After the test compound was dissolved, samples more acidic than a control with no added test compound were adjusted, before further use, with NaOH to have a pH in a range of ±0.2 from the pH of the control with no added test compound. The sensory evaluation scores were as follows: control: 0 points; strong: 3 points; very strong: 5 points. The sensory evaluation was carried out using n (the number of panelists)=4. Moreover, to clarify the scale, the initial taste and the middle/after taste of γ-[…] at 0.001 g/dL were both set as 3.0 points. The term “middle/after taste” refers to the taste perceived during the period which includes the middle taste and the after taste. For the scoring, a linear scale method was employed. In this method, the score was marked as a position on a straight line showing positions for scores ranging from -5 0 5.

panelists [2] = test: Strength of kokumi-imparting activity by Point of Subjective Equality (PSE), limit-determining technique
Protocol: The intensity of the kokumi-imparting activity of γ-Glu-Abu was determined by Point of Subjective Equality (PSE) according to the limit-determining technique (“Statistical Sensory Examination techniques”, written by SATO Shin, published by Japan Federation of Science and Technology). The sensory evaluation was carried out as follows: Distilled water containing sodium glutamate (0.05 g/dL), inosine monophosphate (0.05 g/dL) and sodium chloride (0.5 g/dL) was used as the solution for the sensory evaluation. […] To determine the concentration of γ-Glu-Val at which the strength of taste is the same as that of a solution obtained by causing the solution for the sensory evaluation to contain 0.005 g/dL of γ-[…] solutions were prepared with a concentration that varied on a 50% logarithmic scale by using a solution obtained by causing the solution for the sensory evaluation, to contain 0.01 g/dL of γ-Glu-Val as a standard. The concentrations of γ-Glu-Val was set to 7 values ranging from 0.0030 to 0.0337 g/dL. After the test substance was dissolved, samples more acidic than the control with no added test substance were adjusted, before further use, with NaOH to have a pH in a range of ±0.2 as compared to the pH of the control with no added test substance. The solutions were presented to eighteen panelists in ascending order of the γ-Glu-Val concentration. The evaluation was carried out until each panelist perceived that the strength was higher than that of the 0.005 g/dL γ-Glu-Abu solution. After a certain interval, the solutions were next presented to the eighteen panelists in descending order of the γ-Glu-Val concentration. The evaluation was carried out until each panelist perceived that the strength was lower than that of the 0.005 g/dL γ-Glu-Abu solution. In this sensory evaluation, the panelists were experienced in the development of food products. When the lower and upper threshold values were the same, there was no γ-Glu-Val concentration at which the difference between the perception that the strength was lower, and the perception that the strength was higher, was uncertain. […] Each confidence threshold (average) is an average of the lower thresholds and the upper thresholds. The point of subjective equality (PSE) of γ-Glu-Val to 50 ppm (0.0050 g/dL) of γ-Glu-Abu is expressed as follows: (the sum of the confidence threshold of the lower thresholds and that of the upper threshold value)/2.

panelists [3] = test: Quantitative sensory evaluation test of salty taste enhancement
Protocol: After the test compound was dissolved, samples more acidic than a control containing no added test compound were adjusted, before further use, with NaOH to have a pH in a range of ±0.2 from the pH of the control to which no test compound was added.
The sensory evaluation scores were as follows, the control to which no test compound was added, i.e. a 0.5 g/dL sodium chloride solution: 0 points; a 0.75 g/dL sodium chloride solution: 5 points. The sensory evaluation was conducted on a scale ranging from −5 to 0 to 5, with n=5. The “initial taste” refers to the taste perceived by each panelist from the start of eating the sample to 2 seconds thereafter, while the term “middle/after taste” refers to that perceived by each panelist from 2 seconds on and after eating the same, i.e. perceived during the period including both the middle taste and the after taste. For the scoring, a linear scale method was used. In this method, the score was marked as a position on a straight line showing positions for scores ranging from −5˜0˜5. The panelists were persons who were engaged in the development of seasonings for foods for one year or longer in total, and who were capable of determining that the difference in the potency between γ-Glu-Cys-Gly and γ-Glu-Val-Gly each added to a umami taste and salty taste solution was around 10 times, while confirming the ability of these persons at regular intervals.

[4] = 0.2 g/dL in water with MSG 0.05, IMP 0.05, NaCl 0.5 g/dL
[5] = 0.01 g/dL in water with MSG 0.05, IMP 0.05, NaCl 0.5 g/dL
[6] = γ-Glu-Val vs 50 ppm γ-Glu-Abu, individual panelists (Nos. 1-18), ascending order of presentation
[7] = γ-Glu-Val vs 50 ppm γ-Glu-Abu, individual panelists (Nos. 19-36), descending order of presentation
[8] = 0.002 g/dL in 0.5 g/dL NaCl, 0.5 g/dL NaCl = 0, 0.75 g/dL NaCl = 5, n=5

C[C@H](NC(=O)CC[C@H](N)C(=O)O)C(=O)O [γ-Glu-Ala, γ-L-Glu-L-Ala]
Strength of Kokumi Impartment, Initial Taste (panelists [1]; [4]): 4.5 points | Strength of Kokumi Impartment, Middle/After Taste (panelists [1]; [4]): 4.3 points | Kokumi-imparting strength compared with γ-Glu-Val (in words) (panelists [1]): lower strength than γ-Glu-Val

N[C@@H](CCC(=O)N[C@@H](CS)C(=O)O)C(=O)O [γ-Glu-Cys, γ-L-Glu-L-Cys]
Strength of Kokumi Impartment, Initial Taste (panelists [1]; [5]): 3.1 points | Strength of Kokumi Impartment, Middle/After Taste (panelists [1]; [5]): 3.1 points | Kokumi-imparting strength compared with γ-Glu-Val (in words) (panelists [1]): strong effect approximately the same as that of γ-Glu-Val

CC(C)[C@H](NC(=O)CC[C@H](N)C(=O)O)C(=O)O [γ-Glu-Val, γ-L-Glu-L-Val]
PSE (point of subjective equality) of γ-Glu-Val to 50 ppm γ-Glu-Abu (panelists [2]; (lower + upper confidence threshold)/2): 121.9 ppm | γ-Glu-Val concentration (PSE) with the same strength as 0.0050 g/dL γ-Glu-Abu, estimated from number of panelists (Table 4) (panelists [2]; estimated from Table 4): 0.0100 g/dL | PSE calculated from upper and lower threshold concentrations of γ-Glu-Val (panelists [2]; vs 0.0050 g/dL γ-Glu-Abu): 0.0122 g/dL | No. of Panelists whose evaluation was such that the difference between γ-Glu-Val and γ-Glu-Abu (0.0050 g/dL) was uncertain (panelists [2]; γ-Glu-Val 0.0030 g/dL): 0 No. of panelists | No. of Panelists whose evaluation was such that γ-Glu-Val was weaker than γ-Glu-Abu (0.0050 g/dL) (panelists [2]; γ-Glu-Val 0.0030 g/dL): 36 No. of panelists | No. of Panelists whose evaluation was such that γ-Glu-Val was stronger than γ-Glu-Abu (0.0050 g/dL) (panelists [2]; γ-Glu-Val 0.0030 g/dL, 18 panelists, ascending and descending): 0 No. of panelists | No. of Panelists whose evaluation was such that the difference between γ-Glu-Val and γ-Glu-Abu (0.0050 g/dL) was uncertain (panelists [2]; γ-Glu-Val 0.0044 g/dL): 0 No. of panelists | No. of Panelists whose evaluation was such that γ-Glu-Val was stronger than γ-Glu-Abu (0.0050 g/dL) (panelists [2]; γ-Glu-Val 0.0044 g/dL): 1 No. of panelists | No. of Panelists whose evaluation was such that γ-Glu-Val was weaker than γ-Glu-Abu (0.0050 g/dL) (panelists [2]; γ-Glu-Val 0.0044 g/dL): 35 No. of panelists | No. of Panelists whose evaluation was such that the difference between γ-Glu-Val and γ-Glu-Abu (0.0050 g/dL) was uncertain (panelists [2]; γ-Glu-Val 0.0067 g/dL): 13 No. of panelists | No. of Panelists whose evaluation was such that γ-Glu-Val was stronger than γ-Glu-Abu (0.0050 g/dL) (panelists [2]; γ-Glu-Val 0.0067 g/dL): 3 No. of panelists | No. of Panelists whose evaluation was such that γ-Glu-Val was weaker than γ-Glu-Abu (0.0050 g/dL) (panelists [2]; γ-Glu-Val 0.0067 g/dL): 20 No. of panelists | No. of Panelists whose evaluation was such that the difference between γ-Glu-Val and γ-Glu-Abu (0.0050 g/dL) was uncertain (panelists [2]; γ-Glu-Val 0.0100 g/dL): 13 No. of panelists | No. of Panelists whose evaluation was such that γ-Glu-Val was stronger than γ-Glu-Abu (0.0050 g/dL) (panelists [2]; γ-Glu-Val 0.0100 g/dL): 11 No. of panelists | No. of Panelists whose evaluation was such that γ-Glu-Val was weaker than γ-Glu-Abu (0.0050 g/dL) (panelists [2]; γ-Glu-Val 0.0100 g/dL): 12 No. of panelists | No. of Panelists whose evaluation was such that the difference between γ-Glu-Val and γ-Glu-Abu (0.0050 g/dL) was uncertain (panelists [2]; γ-Glu-Val 0.0150 g/dL): 6 No. of panelists | No. of Panelists whose evaluation was such that γ-Glu-Val was stronger than γ-Glu-Abu (0.0050 g/dL) (panelists [2]; γ-Glu-Val 0.0150 g/dL): 25 No. of panelists | No. of Panelists whose evaluation was such that γ-Glu-Val was weaker than γ-Glu-Abu (0.0050 g/dL) (panelists [2]; γ-Glu-Val 0.0150 g/dL): 5 No. of panelists | No. of Panelists whose evaluation was such that the difference between γ-Glu-Val and γ-Glu-Abu (0.0050 g/dL) was uncertain (panelists [2]; γ-Glu-Val 0.0225 g/dL): 7 No. of panelists | No. of Panelists whose evaluation was such that γ-Glu-Val was stronger than γ-Glu-Abu (0.0050 g/dL) (panelists [2]; γ-Glu-Val 0.0225 g/dL): 28 No. of panelists | No. of Panelists whose evaluation was such that γ-Glu-Val was weaker than γ-Glu-Abu (0.0050 g/dL) (panelists [2]; γ-Glu-Val 0.0225 g/dL): 1 No. of panelists | No. of Panelists whose evaluation was such that the difference between γ-Glu-Val and γ-Glu-Abu (0.0050 g/dL) was uncertain (panelists [2]; γ-Glu-Val 0.0337 g/dL): 0 No. of panelists | No. of Panelists whose evaluation was such that γ-Glu-Val was stronger than γ-Glu-Abu (0.0050 g/dL) (panelists [2]; γ-Glu-Val 0.0337 g/dL): 36 No. of panelists | No. of Panelists whose evaluation was such that γ-Glu-Val was weaker than γ-Glu-Abu (0.0050 g/dL) (panelists [2]; γ-Glu-Val 0.0337 g/dL): 0 No. of panelists | Confidence Region (average), Lower Threshold (panelists [2]; γ-Glu-Val vs 50 ppm γ-Glu-Abu, average of the 36 lower thresholds): 94.5 ppm | Confidence Region (average), Upper Threshold (panelists [2]; γ-Glu-Val vs 50 ppm γ-Glu-Abu, average of the 36 upper thresholds): 149.3 ppm | Lower Threshold at which each panelist determined that the concentrations were the same (panelists [2]; [6]): 55.5 ppm and 125.0 ppm and 37.0 ppm and 83.5 ppm and 187.5 ppm | Upper Threshold at which each panelist determined that the concentrations were the same (panelists [2]; [6]): 55.5 ppm and 125.0 ppm and 187.5 ppm and 37.0 ppm and 281.0 ppm and 83.5 ppm | Lower Threshold at which each panelist determined that the concentrations were the same (panelists [2]; [7]): 125.0 ppm (3×) and 83.5 ppm (5×) and 187.5 ppm (3×) and 55.5 ppm (5×) and 56.0 ppm and 281.0 ppm | Upper Threshold at which each panelist determined that the concentrations were the same (panelists [2]; [7]): 125.0 ppm (7×) and 281.0 ppm (5×) and 187.5 ppm (2×) and 83.5 ppm (4×) | Sensory Evaluation Profile (kokumi) (panelists [1]; 0.01 g/dL): The after taste was extremely weak. | Strength of Kokumi Impartment, Initial Taste (panelists [1]; [5]): 3.1 points | Strength of Kokumi Impartment, Middle/After Taste (panelists [1]; [5]): 2.4 points

[γGlu]-Val-Gly
Strength of Salty Taste Impartment, Initial Taste (panelists [3]; [8]): 0.8 points | Strength of Salty Taste Impartment, Middle/After Taste (panelists [3]; [8]): 1.8 points | Salty taste enhancement ability (in words) (panelists [3]; comparison of γ-Glu-Val-Gly and γ-Glu-Abu): higher taste-imparting strength than γ-Glu-Abu; also recorded: remarkably disturbs the balance of the salty taste

N[C@@H](CCC(=O)N[C@@H](CO)C(=O)O)C(=O)O [γ-Glu-Ser, γ-L-Glu-L-Ser]
Strength of Kokumi Impartment, Initial Taste (panelists [1]; [4]): 3.6 points | Strength of Kokumi Impartment, Middle/After Taste (panelists [1]; [4]): 3.0 points | Kokumi-imparting strength compared with γ-Glu-Val (in words) (panelists [1]): lower strength than γ-Glu-Val
